System: Streptozotocin (STZ)-treated mice
Assay: Blood glucose lowering in Streptozotocin (STZ)-treated mice
Assay type: in vivo
Conditions: insulin 1 IU/kg subcutaneously
Procedure: The efficacy of the Artemisia dracunculus extract was evaluated in Streptozotocin (STZ)-treated mice. STZ induces diabetes by destroying most, if not all, of the beta cells of the pancreas, leaving the animals with little or no insulin production and severe hyperglycemia [Hisashi, et al., European Journal of Pharmacology, 87:237-243 (1983)]. […] Mice were treated with STZ as described by Hisashi et al., European Journal of Pharmacology, 87:237-243 (1983). A 500 mg/kg dose of Artemisia dracunculus extract was administered daily by oral gavage to STZ-treated mice for a period of 7 days. Additionally, a dose of insulin (1 IU/kg) was administered. subcutaneously to STZ-treated mice, while 20 ml/kg of vehicle only (0.9% NaCl or 2% Tween 80 in distilled water) was administered to STZ-treated mice, as a control. […] Regardless of mechanism, however, the results establish that plant extracts, such as the mildly polar ethanolic extract of A. dracunculus, can be orally administered in a dose effective in lowering blood glucose levels.

For insulin, the “reduction in blood glucose concentrations” value was 42%.

From patent US6893627B2, “Method for treating type 2 diabetes with an extract of Artemisia” (Rutgers, The State University of New Jersey, priority 2001, dated 2005)
